In US11963962B2, “Platelet count-agnostic methods of treating myelofibrosis” (Sierra Oncology, Inc., priority 2018, dated 2024):

Experiments:
Format in all cases: in vivo, human
myelofibrosis [1] = assay: SIMPLIFY-1 Phase 3 trial: transfusion independence and TD to TI conversion; conditions: for TI rate Responders / TI rate proportion (Wilson 95% CI) / TI rate Absolute risk difference (Newcombe 95% CI): SIMPLIFY 1, week 24; for TI rate Absolute risk difference (Newcombe 95% CI) / TD to 12w rolling TI Absolute risk difference (Newcombe 95% CI) / TD to W24 TI Absolute risk difference (Newcombe 95% CI): MMB vs Control
From the text: The improved outcome from MMB therapy that results from practicing the subject methods can be manifested as an improvement in one or more clinical endpoints (e.g., as described herein), such as anemia response, in spleen response and/or symptom response. By “anemia response” is meant an increase in the patient's hemoglobin level or a patient who was transfusion dependent becoming transfusion independent. Desirably, a minimum increase in hemoglobin of 0.5 g/dL, such as 1.0 g/dL 1.5 g/dL or 2.0 g/dL lasting a minimum of 8 weeks is achieved, which is the level of improvement specified in the International Working Group (IWG) consensus criteria. However, smaller, but still medically significant, increases in hemoglobin are also considered to be within the term “anemia response”. “Transfusion independence” is an anemia endpoint and refers to a subject who required no RBC transfusions over a 12 week period and had no hemoglobin levels less than 8 g/dL to 8.5 g/dL over the 12 week period. In some embodiments, the 12 week period of transfusion independence is the terminal 12 weeks of a 24 week study period. By red blood cell (RBC) transfusion independence rate at week 24 of a study is meant the proportion of subjects who were transfusion independent at week 24, excluding cases associated with clinically overt bleeding.
(§1) In the SIMPLIFY-1 trial (NCT01969838), the efficacy and safety of MMB versus ruxolitinib (RUX) was studied in patients with myelofibrosis who were naïve to treatment with a JAK inhibitor and a platelet count of ≥50×10^9/L. Patients (N=432) with high risk or intermediate-2 risk or symptomatic intermediate-1 risk myelofibrosis received 24 weeks of treatment with 200 mg MMB once daily or 20 mg RUX twice a day (or per label), after which all patients could receive open-label momelotinib. […] The primary endpoint was a reduction by at least 35% in the spleen volume at 24 weeks compared with baseline.
FIG. 8A: SIMPLIFY-1 study of MMB in a first line population previously untreated with JAKi. For SIMPLIFY-1, the goal was non-inferiority over ruxolitinib (RUX) (MMB: N=215 subjects, and RUX: N=217 subjects). FIG. 8B: SIMPLIFY-2 study of second line population of anemic or thrombocytopenic subjects previously treated with RUX (red blood cell (RBC) transfusions on RUX=64%. RUX dose adjustment for: thrombocytopenia=21%; anemia/hematoma=35%). For SIMPLIFY-2, the goal was superiority over best available treatment (BAT) (MMB: N=104 subjects, and BAT: N=52 subjects). In both SIMPLIFY-1 and SIMPLIFY: Primary endpoint: >=35% reduction in spleen volume at 24 weeks. Secondary endpoints: Total symptom score (TSS) response at 24 weeks. Effects on RBC transfusion requirements.
The SIMPLIFY 1 clinical trial data was reanalyzed for subgroups of subjects having particular baseline platelet counts in the MMB versus RUX arms of the study.
Patient data was analyzed according to the following baseline platelet count (PLT) subgroups and in particular according to the threshold PLT of 150×10^9/L: 1) PLT<50×10^9/L; 2) 50×10^9/L≤PLT<100×10^9/L; 3) 100×10^9/L≤PLT<150×10^9/L. The reanalyzed data is presented in Table 13 (SIMPLIFY 1). Selected data is also illustrated in the following figures.

myelofibrosis [2] = assay: SIMPLIFY-1 Phase 3 trial: safety (anemia, platelet counts, hemoglobin)
Experimental: as §1
The mean platelet count for RUX patients is demonstrably lower than the mean platelet count for MMB patients.
The MMB subjects were thus at lower risk of developing thrombocytopenia (e.g., Grade 3 or 4 thrombocytopenia), or of having to undergo undesirable dose reduction because they were able to largely maintain their platelet counts during therapy.

myelofibrosis [3] = assay: SIMPLIFY-2 Phase 3 trial: overall survival
From the text: In the SIMPLIFY-2 trial (NCT02101268), the efficacy and safety of MMB was studied in anemic or thrombocytopenic subjects with myelofibrosis who were previously treated with ruxolitinib (RUX). […] Specifically, anemic or thrombocytopenic myelofibrosis patients who had and were previously treated with (RUX) (for at least 28 days) were studied over 24 weeks for response to MMB versus best available treatment (BAT), primarily RUX (89% of patients) but alternatively no treatment or other standard interventions, after which period all patients could receive extended MMB treatment. Previously treated RUX patients who either required red blood cell transfusions or RUX dose reduction with grade 3 thrombocytopenia, anemia, and/or bleeding at grade 3 or worse, with palpable spleen of at least 5 cm and without grade 2 or greater peripheral neuropathy were included in the trial. There was no lower limit for the required baseline platelet count. The primary endpoint was a reduction by at least 35% in the spleen volume at 24 weeks compared with baseline.

[4] = SIMPLIFY 1, 50 ≤ PLT < 100 ×10^9/L
[5] = SIMPLIFY 1, 100 ≤ PLT < 150 ×10^9/L
[6] = SIMPLIFY-1, switch from Transfusion Dependent to Independent

Cl.N#CCNC(=O)c1ccc(-c2ccnc(Nc3ccc(N4CCOCC4)cc3)n2)cc1 [MMB, N-(cyanomethyl)-4-(2-(4-morpholinophenylamino)pyrimidin-4-yl)benzamide]
patients with transfusion independence promoted and maintained (TI rate) (myelofibrosis [1]; SIMPLIFY 1): 66% | TI rate Responders (myelofibrosis [1]; 50 ≤ PLT < 100 ×10^9/L): 11 | TI rate proportion (Wilson 95% CI) (myelofibrosis [1]; 50 ≤ PLT < 100 ×10^9/L): 0.61 | TI rate Absolute risk difference (Newcombe 95% CI) (myelofibrosis [1]; 50 ≤ PLT < 100 ×10^9/L): 0.22 | TI rate Responders (myelofibrosis [1]; 100 ≤ PLT < 150 ×10^9/L): 18 | TI rate proportion (Wilson 95% CI) (myelofibrosis [1]; 100 ≤ PLT < 150 ×10^9/L): 0.62 | TI rate Absolute risk difference (Newcombe 95% CI) (myelofibrosis [1]; 100 ≤ PLT < 150 ×10^9/L): 0.17 | TI rate Responders (myelofibrosis [1]; ITT): 143 | TI rate proportion (Wilson 95% CI) (myelofibrosis [1]; ITT): 0.67 | TI rate Absolute risk difference (Newcombe 95% CI) (myelofibrosis [1]; ITT): 0.17 | TD to 12w rolling TI Responders (myelofibrosis [1]; [4]): 4 | TD to 12w rolling TI proportion (Wilson 95% CI) (myelofibrosis [1]; [4]): 0.40 | TD to W24 TI Responders (myelofibrosis [1]; [4]): 5 | TD to W24 TI proportion (Wilson 95% CI) (myelofibrosis [1]; [4]): 0.50 | TD to 12w rolling TI Absolute risk difference (Newcombe 95% CI) (myelofibrosis [1]; [4]): 0.22 | TD to W24 TI Absolute risk difference (Newcombe 95% CI) (myelofibrosis [1]; [4]): 0.32 | TD to 12w rolling TI Responders (myelofibrosis [1]; [5]): 5 | TD to 12w rolling TI proportion (Wilson 95% CI) (myelofibrosis [1]; [5]): 0.45 | TD to W24 TI Responders (myelofibrosis [1]; [5]): 4 | TD to W24 TI proportion (Wilson 95% CI) (myelofibrosis [1]; [5]): 0.36 | TD to 12w rolling TI Absolute risk difference (Newcombe 95% CI) (myelofibrosis [1]; [5]): 0.15 | TD to W24 TI Absolute risk difference (Newcombe 95% CI) (myelofibrosis [1]; [5]): 0.21 | TD to 12w rolling TI Responders (myelofibrosis [1]; SIMPLIFY 1, ITT): 19 | TD to 12w rolling TI proportion (Wilson 95% CI) (myelofibrosis [1]; SIMPLIFY 1, ITT): 0.36 | TD to W24 TI Responders (myelofibrosis [1]; SIMPLIFY 1, ITT): 16 | TD to W24 TI proportion (Wilson 95% CI) (myelofibrosis [1]; SIMPLIFY 1, ITT): 0.30 | TD to 12w rolling TI Absolute risk difference (Newcombe 95% CI) (myelofibrosis [1]; SIMPLIFY 1, ITT): 0.11 | TD to W24 TI Absolute risk difference (Newcombe 95% CI) (myelofibrosis [1]; SIMPLIFY 1, ITT): 0.13 | Week 24 TI rate (myelofibrosis [1]; SIMPLIFY 1, ITT, all patients): 67% | Week 24 TI rate (myelofibrosis [1]; SIMPLIFY 1, ITT, platelets 50-100 (subgroup 2)): 61% | Week 24 TI rate (myelofibrosis [1]; SIMPLIFY 1, ITT, platelets 100-150 (subgroup 3)): 62% | Week 24 TI rate (myelofibrosis [1]; SIMPLIFY 1, baseline TSS ≥ 6, all patients): 67% | Week 24 TI rate (myelofibrosis [1]; SIMPLIFY 1, baseline TSS ≥ 6, platelets 50-100 (subgroup 2)): 64% | Week 24 TI rate (myelofibrosis [1]; SIMPLIFY 1, baseline TSS ≥ 6, platelets 100-150 (subgroup 3)): 68% | Week 24 TI rate (myelofibrosis [1]; SIMPLIFY 1, baseline TSS ≥ 10, all patients): 67% | Week 24 TI rate (myelofibrosis [1]; SIMPLIFY 1, baseline TSS ≥ 10, platelets 50-100 (subgroup 2)): 64% | Week 24 TI rate (myelofibrosis [1]; SIMPLIFY 1, baseline TSS ≥ 10, platelets 100-150 (subgroup 3)): 68% | ≥8 week transfusion independence rate (myelofibrosis [1]; [6]): 58.5% | ≥12 week transfusion independence rate (myelofibrosis [1]; [6]): 49.1% | anemia rate (myelofibrosis [2]; SIMPLIFY 1): 14% | ≥Grade 3 anemia rate (myelofibrosis [2]; SIMPLIFY 1): 6% | platelet counts during treatment (myelofibrosis [2]; SIMPLIFY 1, 24 week double blind phase, FIGS. 31-33): able to maintain platelet levels | hemoglobin change (myelofibrosis [2]; SIMPLIFY 1, after initiating MMB, FIG. 10): rapid and sustained hemoglobin improvement | mOS (myelofibrosis [3]): 28 months
